Assay results as given in patent US4461773A, “P-Oxooxazolidinylbenzene compounds as antibacterial agents” (E. I. DuPont de Nemours and Company, priority 1984, dated 1984).
In brackets after ≈: the same amount, converted by molar mass. Read-outs that look alike come from different tables or passages of the source.

Tests used:
S. epidermidis = test: In vitro broth microdilution minimal inhibitory concentration, S. epidermidis (Table I); type: cell-based; conditions: Staphylococcus epidermidis, read-out: MIC (minimal inhibitory concentration), S. epidermidis
From the text: (§1) A list is presented in Table I of analogs which exert an in-vitro antibacterial effect.

E. Coli [1] = test: In vitro broth microdilution minimal inhibitory concentration, E. Coli (Table I); type: cell-based; conditions: Escherichia coli, read-out: MIC (minimal inhibitory concentration), E. Coli
From the text: as §1

Staphylococcus aureus = test: In vivo efficacy in mice infected intraperitoneally with Staphylococcus aureus (Table III); conditions: 4 h, read-out: ED50, S. auerus
Procedure: (§2) In-vivo efficacy determinations were performed by inoculating mice interaperitoneally with cultures of the infecting organism diluted to produce 90-100% mortality in control animals within seven days. The diluents used were trypticase soy broth for E. coli, Proteus sp. and Psuedomonas aeruginosa and 5% hog gastric mucin for Staphylococcus aureus infections. The compounds, dissolved or suspended in 0.25% methocel.cndot.H2 O were administered orally by intubation at the time of infection and again at four hours post-infection. Mortality was recorded daily until test termination and the 50 percent effective dose. ED50, was calculated by the Reed-Muench method (Reed, L. G. and Muench, H., "A simple method of estimating fifty percent end points." American Journal of Hygiene, 27, 1938, 493-497).

E. coli [2] = test: In vivo efficacy in mice infected intraperitoneally with E. coli (Table III); conditions: Escherichia coli, 4 h, read-out: ED50, E. Coli
Procedure: as §2

[3] = broth microdilution, Mueller-Hinton broth, 24 hour
[4] = mice, intraperitoneal infection, 5% hog gastric mucin, oral dosing at infection and four hours post-infection, Reed-Muench
[5] = mice, intraperitoneal infection, trypticase soy broth, oral dosing at infection and four hours post-infection, Reed-Muench

For `CN(C)S(=O)(=O)c1ccc(N2CC(CO)OC2=O)cc1` (racemic) [Example 3a, dl-N,N-dimethyl-4-[5-(hydroxymethyl)-2-oxooxazolidin-3-yl]benzenesulfonamide], the MIC (S. epidermidis; [3]) was 50 µg/mL (≈ 166 µM) and the MIC (E. Coli [1]; [3]) was > 200 µg/mL.
For `CNS(=O)(=O)c1ccc(N2CC(CO)OC2=O)cc1` (racemic) [Example 3b, dl-N-methyl-4-[5-(hydroxymethyl)-2-oxooxazolidin-3-yl]benzenesulfonamide], the MIC (S. epidermidis; [3]) was 50 µg/mL (≈ 175 µM) and the MIC (E. Coli [1]; [3]) was > 200 µg/mL.
With `[N-]=[N+]=NS(=O)(=O)c1ccc(N2CC(CO)OC2=O)cc1` (racemic) [Example 4, dl-4-[5-(Hydroxymethyl)-2-oxooxazolidin-3-yl]benzenesulfonyl Azide] the MIC (S. epidermidis; [3]) was 4.2 µg/mL (≈ 14.1 µM), the MIC (E. Coli [1]; [3]) was 12.5 µg/mL (≈ 41.9 µM) and the ED50 (Staphylococcus aureus; [4]) was 26 mg/kg. For the same compound, the ED50 (E. coli [2]; [5]) was 17.9 mg/kg.
`O=C1OC(CO)CN1c1ccc(S(=O)(=O)N(Cl)Cl)cc1` (racemic) [Example 11, dl-N,N-Dichloro-4-[5-(hydroxymethyl)-2-oxooxazolidin-3-yl]benzenesulfonamide] was tested, and the MIC (S. epidermidis; [3]) was > 100 µg/mL, the MIC (E. Coli [1]; [3]) was > 100 µg/mL and the ED50 (Staphylococcus aureus; [4]) was 36.3 mg/kg. It also gave an ED50 (E. coli [2]; [5]) of 53.7 mg/kg.
With `O=C1OC(CO)CN1c1ccc(S(=O)(=O)NCl)cc1.[Na]` (racemic) [Example 13, dl-N-Chloro-4-[5-(hydroxymethyl)-2-oxooxazolidin-3-yl]benzenesulfonamide, sodium salt] the MIC (S. epidermidis; 24 h) was 100 µg/mL, the MIC (E. Coli [1]; 24 h) was 200 µg/mL and the ED50 (Staphylococcus aureus; po) was 47.4 mg/kg. For the same compound, the ED50 (E. coli [2]; po) was 43.6 mg/kg.
`CS(C)=NS(=O)(=O)c1ccc(N2CC(CO)OC2=O)cc1` (racemic) [Example 15, dl-N-{4-[5-(Hydroxymethyl)-2-oxooxazolidin-3-yl]-phenylsulfonyl}-S,S-dimethylsulfilimine] was tested, and the MIC (S. epidermidis; [3]) was > 100 µg/mL, the MIC (E. Coli [1]; [3]) was > 100 µg/mL and the ED50 (Staphylococcus aureus; [4]) was 48.5 mg/kg. The ED50 (E. coli [2]; [5]) was 118 mg/kg.
For `NNS(=O)(=O)c1ccc(N2CC(CO)OC2=O)cc1` (racemic) [Example 16, dl-3-[4-Hydrazinosulfonyl)phenyl]-5-(hydroxymethyl)-2-oxazolidin-2-one], the MIC (S. epidermidis; [3]) was > 100 µg/mL, the MIC (E. Coli [1]; [3]) was > 100 µg/mL and the ED50 (Staphylococcus aureus; [4]) was 119 mg/kg. The ED50 (E. coli [2]; [5]) was > 360 mg/kg.
`CC(=O)OCC1CN(c2ccc(S(N)(=O)=O)cc2)C(=O)O1` (racemic) [Example 17, dl-4-[5-(Acetoxymethyl)-2-oxooxazolidin-3-yl]benzenesulfonamide] was tested, and the MIC (S. epidermidis; [3]) was > 50 µg/mL, the MIC (E. Coli [1]; [3]) was > 50 µg/mL and the ED50 (Staphylococcus aureus; [4]) was 47.1 mg/kg. For the same compound, the ED50 (E. coli [2]; [5]) was 48.9 mg/kg.
`CCC(=O)OCC1CN(c2ccc(S(N)(=O)=O)cc2)C(=O)O1` (racemic) [Example 19, dl-4-[5-(Propionyloxymethyl)-2-oxooxazolidin-3-yl]-benzenesulfonamide] was tested, and the MIC (S. epidermidis; [3]) was 25 µg/mL (≈ 76.1 µM), the MIC (E. Coli [1]; [3]) was > 100 µg/mL and the ED50 (Staphylococcus aureus; [4]) was 166 mg/kg. For the same compound, the ED50 (E. coli [2]; [5]) was > 360 mg/kg.
With `NS(=O)(=O)c1ccc(N2CC(COC(=O)CCC(=O)O)OC2=O)cc1` (racemic) [Example 20, dl-Butanedioic acid, Mono Ester with 4-[5-(Hydroxymethyl)-2-oxooxazolidin-3-yl]benzenesulfonamide] the MIC (S. epidermidis; [3]) was > 100 µg/mL, the MIC (E. Coli [1]; [3]) was > 100 µg/mL and the ED50 (Staphylococcus aureus; [4]) was 85.3 mg/kg. For the same compound, the ED50 (E. coli [2]; [5]) was 77.3 mg/kg.
For `O=C(NS(=O)(=O)c1ccc(N2CC(CO)OC2=O)cc1)C(Cl)Cl` (racemic) [Example 34, dl-2,2-Dichloro-N-[4-[5-(Hydroxymethyl)-2-oxooxazolidin-3-yl]phenylsulfonyl]acetamide], the MIC (S. epidermidis; [3]) was > 200 µg/mL, the MIC (E. Coli [1]; [3]) was > 200 µg/mL and the ED50 (Staphylococcus aureus; [4]) was 18.3 mg/kg.
In the case of `O=C1OC(CO)CN1c1ccc(S(=O)(=O)NC(=O)C(Cl)(Cl)Cl)cc1` (racemic) [Example 35, dl-2,2,2-Trichloro-N-[4-[5-(hyroxymethyl)-2-oxooxazolidin-3-yl]phenylsulfonyl]acetamide], the MIC (S. epidermidis; [3]) is reported as > 200 µg/mL, the MIC (E. Coli [1]; [3]) is reported as > 200 µg/mL and the ED50 (Staphylococcus aureus; [4]) is reported as 58.5 mg/kg.
`CC(=NO)c1ccc(N2CC(CO)OC2=O)cc1` (racemic) [Example 37, dl-5-Hydroxymethyl-3-[4-(1-hydroxyiminoethyl)phenyl]-2-oxazolidinone] was tested, and the MIC (S. epidermidis; [3]) was > 50 µg/mL, the MIC (E. Coli [1]; [3]) was > 50 µg/mL and the ED50 (Staphylococcus aureus; [4]) was 68 mg/kg.
Work on `CON=C(C)c1ccc(N2CC(CO)OC2=O)cc1` (racemic) [Example 38, dl-5-Hydroxymethyl-3-[4-(1-methoxyiminoethyl)phenyl]-2-oxazolidinone] yielded an ED50 (Staphylococcus aureus; [4]) of 76.6 mg/kg.
Work on `CC(C)c1ccc(N2CC(CO)OC2=O)cc1` (racemic) [Example 39] yielded an ED50 (Staphylococcus aureus; [4]) of 116 mg/kg.
With `C=CCOCC1CN(c2ccc(C(C)C)cc2)C(=O)O1` (racemic) [Example 40] the ED50 (Staphylococcus aureus; [4]) was 79.8 mg/kg.
`CC(=O)c1ccc(N2CC(CO)OC2=O)cc1` (racemic) [Example 41] was tested, and the ED50 (Staphylococcus aureus; [4]) was 35.8 mg/kg and the ED50 (E. coli [2]; [5]) was 97.6 mg/kg.
`N#Cc1ccc(N2CC(CO)OC2=O)cc1` (racemic) [Example 42] was tested, and the ED50 (Staphylococcus aureus; [4]) was 66.4 mg/kg.
For `O=C1OC(CO)CN1c1ccc([N+](=O)[O-])cc1` (racemic) [Example 43], the ED50 (Staphylococcus aureus; [4]) was 40 mg/kg and the ED50 (E. coli [2]; [5]) was > 360 mg/kg.
`NS(=O)(=O)c1ccc(N2CC(CO)OC2=O)cc1` (stereo not shown) [Example 1, 4-[5-(Hydroxymethyl)-2-oxooxazolidin-3-yl]benzenesulfonamide] gave an MIC (S. epidermidis; [3]) of 100 µg/mL (≈ 367 µM), an MIC (E. Coli [1]; [3]) of 100 µg/mL (≈ 367 µM) and an ED50 (Staphylococcus aureus; [4]) of 40.2 mg/kg. The ED50 (E. coli [2]; [5]) was 19.7 mg/kg.
`[N-]=[N+]=NS(=O)(=O)c1ccc(N2C[C@@H](CO)OC2=O)cc1` [Example 5, l-4-[5-(Hydroxymethyl)-2-oxooxazolidin-3-yl]benzenesulfonyl Azide] was tested, and the MIC (S. epidermidis; [3]) was 2.4 µg/mL (≈ 8.05 µM), the MIC (E. Coli [1]; [3]) was 7.9 µg/mL (≈ 26.5 µM) and the ED50 (Staphylococcus aureus; [4]) was 24.9 mg/kg. It also gave an ED50 (E. coli [2]; [5]) of 14.9 mg/kg.
In the case of `CNS(=O)(=O)c1ccc(N2C[C@@H](CO)OC2=O)cc1` [Example 6, l-4-[5-(Hydroxymethyl)-2-oxooxazolidin-3-yl]-N-methylbenzenesulfonamide], the MIC (S. epidermidis; [3]) is reported as 62.5 µg/mL (≈ 218 µM), the MIC (E. Coli [1]; [3]) is reported as ≥ 200 µg/mL and the ED50 (Staphylococcus aureus; [4]) is reported as 15.4 mg/kg. It also gave an ED50 (E. coli [2]; [5]) of 39.7 mg/kg.
In the case of `O=C1O[C@H](CO)CN1c1ccc(S(=O)(=O)NC2CC2)cc1` [Example 9, l-4-[5-(Hydroxymethyl)-2-oxooxazolidin-3-yl]-N-cyclopropylbenzenesulfonamide], the MIC (S. epidermidis; [3]) is reported as > 100 µg/mL, the MIC (E. Coli [1]; [3]) is reported as > 100 µg/mL and the ED50 (Staphylococcus aureus; [4]) is reported as 89.2 mg/kg.
For `CONS(=O)(=O)c1ccc(N2C[C@@H](CO)OC2=O)cc1` [Example 10, l-4-[5-(Hydroxymethyl)-2-oxooxazolidin-3-yl]-N-methoxybenzenesulfonamide], the MIC (S. epidermidis; [3]) was 100 µg/mL (≈ 331 µM), the MIC (E. Coli [1]; [3]) was > 100 µg/mL and the ED50 (Staphylococcus aureus; [4]) was 52 mg/kg.
In the case of `COC[C@@H]1CN(c2ccc(SC)cc2)C(=O)O1` [Example 31, l-5-(Methoxymethyl)-3-[4-(methylthio)phenyl]-2-oxazolidinone], the MIC (S. epidermidis; [3]) is reported as > 200 µg/mL, the MIC (E. Coli [1]; [3]) is reported as > 200 µg/mL and the ED50 (Staphylococcus aureus; [4]) is reported as 54.6 mg/kg.
For `COC[C@@H]1CN(c2ccc(S(C)(=O)=O)cc2)C(=O)O1` [Example 32, l-5-(Methoxymethyl)-3-[4-(methylsulfonyl)phenyl]-2-oxazolidinone], the MIC (S. epidermidis; [3]) was 100 µg/mL (≈ 350 µM), the MIC (E. Coli [1]; [3]) was > 200 µg/mL and the ED50 (Staphylococcus aureus; [4]) was 5.1 mg/kg. For the same compound, the ED50 (E. coli [2]; [5]) was 11.8 mg/kg.
In the case of `COC[C@@H]1CN(c2ccc(S(N)(=O)=O)cc2)C(=O)O1` [Example 33, l-4-[5-(Methoxymethyl)-2-oxooxazolidin-3-yl]benzenesulfonamide], the MIC (S. epidermidis; [3]) is reported as > 200 µg/mL, the MIC (E. Coli [1]; [3]) is reported as > 200 µg/mL and the ED50 (Staphylococcus aureus; [4]) is reported as 59.6 mg/kg.
With `CC(=O)NS(=O)(=O)c1ccc(N2CC(CO)OC2=O)cc1` (stereo not shown) [Example 36, N-[4-[5-(Hydroxymethyl)-2-oxooxazolidin-3-yl]phenylsulfonyl]acetamide] the MIC (S. epidermidis; [3]) was > 100 µg/mL, the MIC (E. Coli [1]; [3]) was > 100 µg/mL and the ED50 (Staphylococcus aureus; [4]) was > 120 mg/kg. It also gave an ED50 (E. coli [2]; [5]) of 56.9 mg/kg.
